Here are results for nine compounds from ChEMBL document CHEMBL1141048, “5-Substituted 4-anilinoquinazolines as potent, selective and orally active inhibitors of erbB2 receptor tyrosine kinase” (Bioorg Med Chem Lett, 2005).

Data set [1] is described as follows: AUC in Mice after administration of 5 mg/kg through peroral route. The conditions noted are these: mouse, plasma, po. It is filed as ADME, organism-based. Also on record: dose 5 mg/kg, route oral.
Data set [2] is described as follows: Bioavailability of compound in Mice after administration of 2 mg/kg through intra venous route. To be noted: mouse, in vivo, intravenous, read-out: Bioavailabiility. It is filed as ADME, organism-based.
Data set [3] can be described thus: Steady state volume of Distribution of compound in Mice after administration of 5 mg/kg through peroral route. It is filed as ADME, organism-based. To be noted: mouse, in vivo, po. Also on record: dose 5 mg/kg, route oral.
Data set [4] can be described thus: Plasma concentration of compound after 16 hours of administration of 100 mg/kg through peroral route. The conditions noted are these: mouse, po.
A short description of data set [5]: Clearance of compound in Mice after administration of 5 mg/kg through peroral route. It is filed as ADME, organism-based. The arrangement: dose 5 mg/kg, route oral. The conditions noted are these: mouse, in vivo, po.
In data set [6] the test system is KB. As to the kind of experiment: Inhibitory concentration of compound against KB Basal. To be noted: Homo sapiens.
The subject of a further data set is BT-474. Nature of the data set: Inhibitory concentration of compound against BT474C using standard MTT colorimetric endpoint. The conditions noted are these: Homo sapiens.
Data set [7] is described as follows: Steady state volume of Distribution of compound in Mice after administration of 2 mg/kg through intra venous route. It is filed as ADME, organism-based. The arrangement: dose 2 mg/kg. To be noted: mouse, in vivo, iv, read-out: Vdss.
Data set [8] is described as follows: Plasma concentration of compound after 2 hours of administration of 100 mg/kg through peroral route. The conditions noted are these: mouse, po.
Data set [9] can be described thus: AUC in Mice after administration of 5 mg/kg through oral route. The conditions noted are these: mouse, plasma.
A short description of data set [10]: Bioavailability of compound in Mice after administration of 5 mg/kg through peroral route. To be noted: mouse, in vivo, po, read-out: Bioavailabiility. It is filed as ADME, organism-based.
A short description of data set [11]: Clearance of compound in Mice after administration of 2 mg/kg through intra venous route. It is filed as ADME, organism-based. The conditions noted are these: mouse, in vivo, iv. Also on record: dose 2 mg/kg.
In data set [12] the target is T1, Receptor tyrosine-protein kinase erbB-2 (Homo sapiens, UniProt P04626). Nature of the data set: Inhibitory concentration against erbB2 kinase phosphorylation using synthetic peptide as a substrate.
Data set [13] can be described thus: Plasma concentration of compound after 6 hours of administration of 100 mg/kg through peroral route. The conditions noted are these: mouse, po.
Data set [14] concerns the target Epidermal growth factor receptor (Homo sapiens, UniProt P00533). Nature of the data set: Inhibitory concentration against EGFR kinase phosphorylation using synthetic peptide as a substrate.
Data set [15] relates to KB. Nature of the data set: Inhibitory concentration of compound against KB using a sandwich ELISA. The conditions noted are these: Homo sapiens. (ELISA stands for enzyme-linked immunosorbent assay.)
The target of data set [16] is T1, Receptor tyrosine-protein kinase erbB-2. As to the kind of experiment: Inhibitory concentration against erbB2 autophosphorylation in MCF-7 breast carcinoma cell line. It is filed as functional, cell-based, MCF7.
Data set [17] in a line: Plasma concentration of compound after 24 hours of administration of 100 mg/kg through peroral route. The conditions noted are these: mouse, po.
A short description of data set [18]: Plasma concentration of compound after 4 hours of administration of 100 mg/kg through peroral route. To be noted: mouse, po.

T1 sequence (P04626 whole entry): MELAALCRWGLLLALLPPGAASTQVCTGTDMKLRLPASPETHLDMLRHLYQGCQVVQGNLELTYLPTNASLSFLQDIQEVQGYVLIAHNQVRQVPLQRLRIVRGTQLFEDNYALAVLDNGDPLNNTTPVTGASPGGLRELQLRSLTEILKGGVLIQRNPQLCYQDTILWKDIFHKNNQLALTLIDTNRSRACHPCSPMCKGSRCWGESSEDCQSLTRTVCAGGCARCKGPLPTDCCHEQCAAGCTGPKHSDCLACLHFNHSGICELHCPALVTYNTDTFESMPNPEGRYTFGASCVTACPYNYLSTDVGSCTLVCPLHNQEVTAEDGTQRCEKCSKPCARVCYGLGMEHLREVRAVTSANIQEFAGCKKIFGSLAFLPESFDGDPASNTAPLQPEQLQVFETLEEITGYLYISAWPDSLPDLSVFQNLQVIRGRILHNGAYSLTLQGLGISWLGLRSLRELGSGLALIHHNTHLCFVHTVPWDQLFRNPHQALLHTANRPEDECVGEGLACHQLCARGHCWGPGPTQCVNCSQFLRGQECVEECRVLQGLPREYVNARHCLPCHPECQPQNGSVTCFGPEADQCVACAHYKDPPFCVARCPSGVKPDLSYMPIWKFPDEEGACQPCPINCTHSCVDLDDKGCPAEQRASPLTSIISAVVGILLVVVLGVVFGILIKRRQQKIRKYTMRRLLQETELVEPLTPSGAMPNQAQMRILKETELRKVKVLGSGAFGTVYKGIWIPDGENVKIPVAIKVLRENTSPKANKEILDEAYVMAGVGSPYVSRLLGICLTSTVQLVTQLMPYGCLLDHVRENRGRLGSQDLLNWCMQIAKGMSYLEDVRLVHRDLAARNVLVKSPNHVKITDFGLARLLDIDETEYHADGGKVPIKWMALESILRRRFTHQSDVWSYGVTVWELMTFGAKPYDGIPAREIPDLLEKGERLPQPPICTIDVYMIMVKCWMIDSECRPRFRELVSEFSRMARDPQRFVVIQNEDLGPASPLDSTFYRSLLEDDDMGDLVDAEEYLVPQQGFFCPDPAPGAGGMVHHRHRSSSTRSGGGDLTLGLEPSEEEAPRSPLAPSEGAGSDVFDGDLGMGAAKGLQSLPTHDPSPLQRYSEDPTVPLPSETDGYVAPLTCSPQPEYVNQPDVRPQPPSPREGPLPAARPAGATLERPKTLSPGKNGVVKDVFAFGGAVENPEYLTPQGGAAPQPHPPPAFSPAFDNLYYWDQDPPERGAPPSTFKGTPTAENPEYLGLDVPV
Epidermal growth factor receptor, sequence (P00533 whole entry): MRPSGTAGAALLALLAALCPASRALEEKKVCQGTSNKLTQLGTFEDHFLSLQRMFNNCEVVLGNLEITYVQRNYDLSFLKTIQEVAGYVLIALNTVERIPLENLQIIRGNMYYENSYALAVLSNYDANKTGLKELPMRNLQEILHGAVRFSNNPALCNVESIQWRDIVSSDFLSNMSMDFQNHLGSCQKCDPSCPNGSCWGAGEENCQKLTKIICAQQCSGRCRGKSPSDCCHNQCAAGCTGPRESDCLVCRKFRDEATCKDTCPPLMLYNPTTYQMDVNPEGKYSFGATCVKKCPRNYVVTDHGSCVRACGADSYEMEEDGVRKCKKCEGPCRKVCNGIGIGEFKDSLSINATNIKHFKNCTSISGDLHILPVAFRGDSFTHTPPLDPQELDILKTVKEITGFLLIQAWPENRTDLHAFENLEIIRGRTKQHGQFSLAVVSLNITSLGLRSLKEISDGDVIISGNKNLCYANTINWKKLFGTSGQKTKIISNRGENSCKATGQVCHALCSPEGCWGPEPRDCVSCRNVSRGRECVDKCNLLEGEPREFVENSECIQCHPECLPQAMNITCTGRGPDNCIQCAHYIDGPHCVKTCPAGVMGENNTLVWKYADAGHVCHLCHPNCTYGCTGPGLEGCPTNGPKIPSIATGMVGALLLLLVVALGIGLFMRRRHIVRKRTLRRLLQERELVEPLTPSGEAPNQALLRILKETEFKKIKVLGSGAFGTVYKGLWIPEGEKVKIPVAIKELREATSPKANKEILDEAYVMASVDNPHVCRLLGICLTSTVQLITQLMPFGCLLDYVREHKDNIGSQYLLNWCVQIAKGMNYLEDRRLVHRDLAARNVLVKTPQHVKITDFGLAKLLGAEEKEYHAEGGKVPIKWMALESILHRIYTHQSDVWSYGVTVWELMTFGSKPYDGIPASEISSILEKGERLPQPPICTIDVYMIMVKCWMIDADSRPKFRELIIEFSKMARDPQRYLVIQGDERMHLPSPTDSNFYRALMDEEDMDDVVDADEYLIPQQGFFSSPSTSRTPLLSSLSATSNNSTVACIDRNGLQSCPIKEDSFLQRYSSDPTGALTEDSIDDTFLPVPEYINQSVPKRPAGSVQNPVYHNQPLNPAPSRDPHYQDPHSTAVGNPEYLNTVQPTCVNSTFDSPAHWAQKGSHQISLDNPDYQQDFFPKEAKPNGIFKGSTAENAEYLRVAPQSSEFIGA

The AUC is the area under the concentration-time curve, a measure of exposure. In general, CL/F refers to clearance divided by bioavailability, as obtained after extravascular dosing. As usually defined, the IC50 is the concentration at which inhibition is half-maximal. A higher IC50 goes with lower potency. Usually clearance stands for the rate of elimination divided by the concentration. Read a low clearance as inefficient removal. `CN1CCC(Oc2cccc3ncnc(Nc4ccc(OCc5ccccn5)c(Cl)c4)c23)CC1`: the AUC in data set [1] and in data set [9] was 5.5 µM·h in each case. Also, the bioavailability in [2] and in data set [10] was 50% each time. In data set [3], this compound returned a Vdss of 2.6 L/kg. Besides, in [4], the concentration at 16 h was 2.2 µM. In [5], this compound yielded a CL/F of 15 mL/min/kg. Further, the IC50 with KB [6] was 11900 nM; in the data set on BT-474 it was 41 nM; in [12] it was < 2 nM; in data set [14], 140 nM; in the data set on KB [15] it was 2600 nM; in data set [16], 61 nM. Also, the Vd in [7] amounted to 2.6 L/kg. In data set [8], this compound came in with a concentration at 2 h of 9.2 µM. Also, the clearance in [11] was 15 mL/min/kg. The compound also came in with a concentration at 6 h in [13] of 6.9 µM. Moreover, the concentration at 24 h in data set [17] is 1.1 µM. For the same compound, the concentration at 4 h in data set [18] is 7.2 µM.
On to `Clc1cc(Nc2ncnc3cccc(OC4CCOCC4)c23)ccc1OCc1ccccn1`, for which the IC50 in data set [12] is 24 nM; in data set [14] it was 2400 nM.
Turning to `CN1CCC(Oc2cccc3ncnc(Nc4ccc(OCc5ccccn5)cc4)c23)CC1`, the IC50 in [12] turned out to be 70 nM; in [14] it was 2100 nM.
With `COc1cccc2ncnc(Nc3ccc(OCc4ccccn4)c(Cl)c3)c12`, the IC50 in data set [12] came to 24 nM; in [14] it was 440 nM.
For `CN1CCC(Oc2cccc3ncnc(Nc4ccc(OCc5cscn5)c(Cl)c4)c23)CC1`, in that order: < 2 nM and 698 nM.
The like results for `COc1ccc(Nc2ncnc3cccc(OC4CCN(C)CC4)c23)cc1Cl` were, in that order, 1100 nM and 1800 nM.
`CN1CCC(Oc2cccc3ncnc(Nc4ccc(OCc5cccc(F)c5)c(Cl)c4)c23)CC1`: the IC50 with KB [6] was 1700 nM; in the data set with BT-474, 2.7 nM; in data set [12], < 2 nM; in data set [14], 5 nM; with KB [15], 460 nM; in data set [16] it was 56 nM.
Turning to `COc1cc2ncnc(Nc3ccc(OCc4ccccn4)c(C)c3)c2cc1OC`, the results for the IC50 in data set [12] and in data set [14] were 56 nM and 59 nM, respectively.
For `CN1CCC(Oc2cccc3ncnc(Nc4ccc(OCc5cnccn5)c(Cl)c4)c23)CC1`, in that order: < 2 nM and 690 nM.
